ChEMBL document CHEMBL1142781, “Chemical modification of the naphthoyl 3-position of JWH-015: in search of a fluorescent probe to the cannabinoid CB2 receptor” (Bioorg Med Chem Lett, 2005)

Assays:
Cannabinoid receptor 2 [1] = molecular target: T1, Cannabinoid receptor 2 (Homo sapiens, UniProt P34972); assay: In vitro inhibitory activity towards human cannabinoid receptors 2 using fluorescence assay
Cannabinoid receptor 2 [2] = molecular target: T1, Cannabinoid receptor 2; assay: Percentage ([35S]GTP-gamma-S binding was determined from basal towards human cannabinoid receptor 2 at 1 uM concentration […]; assay type: functional
Cannabinoid receptor 2 [3] = molecular target: T1, Cannabinoid receptor 2; assay: In vitro inhibitory activity towards human cannabinoid receptors 2 using fluorescence assay at 10 uM concentration; parameters: scale not given: the % may be the effect or the level left

T1 sequence (P34972 whole entry): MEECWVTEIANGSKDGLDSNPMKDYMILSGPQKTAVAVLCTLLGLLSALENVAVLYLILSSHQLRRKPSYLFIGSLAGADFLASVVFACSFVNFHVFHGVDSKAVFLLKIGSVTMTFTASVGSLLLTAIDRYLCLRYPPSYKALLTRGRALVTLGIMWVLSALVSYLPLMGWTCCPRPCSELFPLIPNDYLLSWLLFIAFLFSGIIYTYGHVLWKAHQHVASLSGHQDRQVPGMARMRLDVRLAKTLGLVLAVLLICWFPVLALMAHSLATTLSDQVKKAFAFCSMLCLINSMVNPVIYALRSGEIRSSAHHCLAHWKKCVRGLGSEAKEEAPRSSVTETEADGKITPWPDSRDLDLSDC

SMILES: CCCn1c(C)c(C(=O)c2cc([N+](=O)[O-])cc3ccccc23)c2ccccc21
- Ki (Cannabinoid receptor 2 [1]): 143 nM
- Activity (Cannabinoid receptor 2 [2]): 134%

SMILES: CCCn1c(C)c(C(=O)c2cccc3ccccc23)c2ccccc21
- Activity (Cannabinoid receptor 2 [2]): 142%

SMILES: CCCn1c(C)c(C(=O)c2cc(NC(=O)CNc3ccc([N+](=O)[O-])c4nonc34)cc3ccccc23)c2ccccc21
- Activity (Cannabinoid receptor 2 [3]): 25%

SMILES: CCCn1c(C)c(C(=O)c2cc(N)cc3ccccc23)c2ccccc21
- Ki (Cannabinoid receptor 2 [1]): 191 nM
- Activity (Cannabinoid receptor 2 [2]): 151%

SMILES: CCCn1c(C)c(C(=O)c2cc(NC(=O)CN)cc3ccccc23)c2ccccc21
- Ki (Cannabinoid receptor 2 [1]): 420 nM
